Assay results taken from patent US7807641B2, “Methods and reagents for treating glucose metabolic disorders” (Curis, Inc., priority 1999, dated 2010).
Read-outs that look alike come from different tables or passages of the source. Numbered stars: 1 amine (or outer) side, 2 acyl side, 3 side chain; on linkers, the order of the positions; unused ones are H or OH. Bridge positions count the residues as written; N and C are the ends. Square brackets hold non-standard residues; d marks the D form. Ends that are not written are not given here. Peptide text beside a SMILES is read from it. I, II: the chains in the order shown. Actinocin(9to1) = Cc1c2oc3c(C)ccc(C(=O)[*:1])c3nc-2c(C(=O)[*:2])c(N)c1=O; NMeV = CN[C@H](C(=O)O)C(C)C; Sar = CNCC(=O)O

Assays:
E21 fetal islets = test: Glucose-stimulated insulin release (static insulin release, RIA) in cultured e21 fetal rat islets; conditions: e21 fetal islets cultured for 5 days with 200 ng/ml peptide
e21 islets = test: IBMX stimulated calcium influx in e21 islets; assay type: cell-based, rat; conditions: 1 μM IBMX in 3 mM (low) glucose; non-glucose responsive e21 islets
Experimental: (§1) Fetal rat islets were obtained as follows. […] Fetuses were removed from the uterus.
E21 islet were isolated and cultured according to Example 1. Islets were then treated with 17 mM glucose or 1 μM IBMX in 3 mM (low) glucose (FIG. 2).

[1] = system: small ducts from rat pancreas; conditions: cited from earlier work
Fetal rat islets = test: Insulin content of cultured fetal rat islets; assay type: cell-based; conditions: 200μ/ml PYY for 5 days, actinomycin D at 0.1, 0.2, 0.5 and 1.0 μg/ml for the last 16 hours
Source text: as §1

[2] = confluent duct monolayer, single treatment preferentially 48 hr

PPP: related peptide sharing approximately 70% amino acid homology with PYY; probably pancreatic polypeptide (PP) (APLEPVYPGDNATPEQMAQYAADLRRYINMLTRPRY; ends and bridges not checked; UniProt P01298 30-65, looked up)
gain of glucose responsivity (glucose-stimulated insulin release) (E21 fetal islets): did not stimulate gain of glucose responsivity

CC(C)Cn1c(=O)n(C)c(=O)c2[nH]cnc21 [IBMX]
intracellular calcium influx (e21 islets): induced a calcium influx

CCCC(=O)[O-].[Na+] [Na-Butyrate]
induction of differentiation [1, 2]: found to induce differentiation

Cc1c2oc3c(C)ccc(C(=O)N[C@@H]4C(=O)N[C@H](C(C)C)C(=O)N5CCC[C@H]5C(=O)N(C)CC(=O)N(C)[C@@H](C(C)C)C(=O)O[C@@H]4C)c3nc-2c(C(=O)N[C@@H]2C(=O)N[C@H](C(C)C)C(=O)N3CCC[C@H]3C(=O)N(C)CC(=O)N(C)[C@@H](C(C)C)C(=O)O[C@@H]2C)c(N)c1=O [Actinomycin D, actinomycin D] (I: T[dV]P[Sar][NMeV] / II: T[dV]P[Sar][NMeV]; ester I:1-I:C, II:1-II:C; linker I:N-II:N via Actinocin(9to1))
overall islet insulin content (Fetal rat islets): did not significantly decrease overall islet insulin content

cholera toxin
induction of differentiation [1]: found to induce differentiation

neuropeptide Y [NPY]
gain of glucose responsivity (glucose-stimulated insulin release) (E21 fetal islets): did not stimulate gain of glucose responsivity

CCCC(=O)Nc1ncnc2c1ncn2[C@@H]1O[C@@H]2COP(=O)(O)O[C@H]2[C@H]1OC(=O)CCC [dibutyrl cAMP]
induction of differentiation [1, 2]: found to induce differentiation
